Measured values taken from US20070122830A1, “Prohibitin-directed diagnostics and therapeutics for cancer and chemotherapeutic drug resistance” (Aurelium BioPharma Inc., priority 2005, published 2007).

Test system: hematological tumor cells
Assay: Hematological tumor model in MHC-matched mice, prohibitin siRNA plus chemotherapy
Format: in vivo
Details: Example 8
Experimental: In order to determine whether targeting prohibitin is useful in treating a preexisting cancerous condition, MHC-matched mice, 5 to 7 weeks old, receive a subcutaneous (s.c.) injection of the cells 5×10^5 hematological tumor cells, and tumors are allowed to form. Tumor growth starting on the first day of treatment is measured by palpitation, and the volume of the xenograft is monitored every 4 days. Tumors are allowed to grow to a sufficient size (5.5 mm) for appropriate analysis of the effects of prohibitin treatment on tumor sensitivity to chemotherapeutic drugs. Mice are then treated with a prohibitin siRNA (3 μg daily for 16 days) designed to decrease the level of expression of prohibitin. […]
The animal's weight is measured every 4 days. Tumor growth starting on the first day of treatment is measured by palpitation and the volume of the xenograft is monitored every 4 days. […] Tumor tissue is excised from the mice and its weight is measured. […] Tumor cell count is determined by trypsinizing tumors in DMEM medium supplemented with 10% fetal bovine serum until cells are in free suspension. […]
Liposome formulations are produced as described previously (Shi et al. (2000) Proc. Natl. Acad. Sci. USA. 97(13): 7567-7572). […] The mean vesicle diameters are determined by quasielastic light scattering using a Microtrac Ultrafine Particle Analyzer (Leeds-Northrup, St. Petersburg, Fla.). […]

For “prohibitin siRNA: siRNA duplex to human prohibitin mRNA nt 425-443; sense 5′-GGAAGUGGUCUGUCUGUUAtt-3′, antisense 5′-UAACAGACAGACCACUUCCtt-3′ (sense GGAAGUGGUCUGUCUGUUATT; antisense UAACAGACAGACCACUUCCTT; chemistry not given here)”, the “sensitivity of hematological tumors to chemotherapeutic drug treatment” value (siRNA 3 μg daily for 16 days with taxol or doxorubicin) was “increases the sensitivity” and the “prognosis (tumor size, tumor cells) vs targeting agent only or drug only” value (siRNA plus taxol or doxorubicin) was “better prognosis (i.e., smaller tumor or fewer tumor cells)”.
